This note sets out measurements from patent publication US10654833B2, “ASK1 isoindolin-1-one inhibitors and methods of use thereof” (Hepatikos Therapeutics, LLC, priority 2018, dated 2020).

Structures are written as SMILES.

recombinant human ASK1 protein, sequence (Q99683 whole entry): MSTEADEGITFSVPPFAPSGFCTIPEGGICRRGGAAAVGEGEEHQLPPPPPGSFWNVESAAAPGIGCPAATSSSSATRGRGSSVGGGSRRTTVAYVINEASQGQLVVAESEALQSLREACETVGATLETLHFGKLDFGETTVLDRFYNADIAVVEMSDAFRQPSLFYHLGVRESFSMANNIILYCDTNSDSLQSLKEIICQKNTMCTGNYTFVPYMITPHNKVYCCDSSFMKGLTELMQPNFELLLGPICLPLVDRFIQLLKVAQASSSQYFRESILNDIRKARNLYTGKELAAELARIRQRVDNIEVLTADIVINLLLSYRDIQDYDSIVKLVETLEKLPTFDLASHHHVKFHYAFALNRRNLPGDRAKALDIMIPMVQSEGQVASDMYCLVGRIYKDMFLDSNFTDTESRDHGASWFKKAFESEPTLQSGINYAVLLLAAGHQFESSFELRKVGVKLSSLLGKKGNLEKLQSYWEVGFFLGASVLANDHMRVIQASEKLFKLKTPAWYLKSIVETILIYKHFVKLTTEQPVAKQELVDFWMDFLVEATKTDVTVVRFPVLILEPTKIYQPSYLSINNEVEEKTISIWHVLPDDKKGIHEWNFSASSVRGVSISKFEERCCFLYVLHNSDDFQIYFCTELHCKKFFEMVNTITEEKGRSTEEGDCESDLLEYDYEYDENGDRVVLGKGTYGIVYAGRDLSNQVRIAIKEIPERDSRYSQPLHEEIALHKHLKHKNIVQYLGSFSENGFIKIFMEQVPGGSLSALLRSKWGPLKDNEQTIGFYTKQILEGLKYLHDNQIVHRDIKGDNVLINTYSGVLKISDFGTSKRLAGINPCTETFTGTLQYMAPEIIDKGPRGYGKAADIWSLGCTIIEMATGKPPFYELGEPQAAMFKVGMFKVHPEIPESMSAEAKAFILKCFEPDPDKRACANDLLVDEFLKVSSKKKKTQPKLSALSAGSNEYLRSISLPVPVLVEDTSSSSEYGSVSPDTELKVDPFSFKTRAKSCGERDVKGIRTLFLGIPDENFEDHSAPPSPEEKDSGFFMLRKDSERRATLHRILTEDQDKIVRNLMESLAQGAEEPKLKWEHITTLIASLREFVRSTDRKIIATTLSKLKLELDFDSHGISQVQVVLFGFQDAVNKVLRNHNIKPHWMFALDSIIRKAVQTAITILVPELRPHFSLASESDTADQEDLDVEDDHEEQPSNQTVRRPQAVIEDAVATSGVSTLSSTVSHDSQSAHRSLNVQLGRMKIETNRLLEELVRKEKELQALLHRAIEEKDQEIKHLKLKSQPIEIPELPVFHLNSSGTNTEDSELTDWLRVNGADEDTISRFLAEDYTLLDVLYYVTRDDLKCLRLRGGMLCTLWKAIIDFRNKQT

The target of the assay is recombinant human ASK1 protein (Homo sapiens (Human), UniProt Q99683). Nature of the assay: ASK1 kinase activity inhibition assay (radiometric 33P incorporation into MBP). It counts as biochemical. The note with it: Table 3; 20 μM MBP, 10 μM 33P-ATP. The procedure:
ASK1 Kinase Activity Inhibition Assay
Inhibition of ASK1 kinase activity was determined radiometrically using 33P substrate incorporation (Reaction Biology Corp., Malvern, Pa.). Briefly, recombinant human ASK1 protein, 20 μM substrate (myelin basic protein (MBP)), and compound (diluted from DMSO stock to give 1% final DMSO) were incubated in Base Reaction buffer (20 mM Hepes (pH 7.5), 10 mM MgCl2, 1 mM EGTA, 0.02% Brij35, 0.02 mg/mL BSA, 0.1 mM Na3VO4, 2 mM DTT, 1% DMSO) at room temperature for 20 minutes. The reaction was initiated by addition of 10 μM 33P-ATP (specific activity […]). The reaction was then allowed to proceed for 2 hours at room temperature. Upon reaction termination, the mixture was spotted on P81 exchange paper and kinase activity by incorporation of 33P into MBP substrate was detected by filter-binding method.
On to `CC(C)n1cnnc1-c1cccc(N2Cc3ccc(-c4ccc(Cl)c(C(=O)O)c4)cc3C2=O)n1` [Compound 60, 2-Chloro-5-(2-(6-(4-isopropyl-4H-1,2,4-triazol-3-yl)pyridin-2-yl)-3-oxoisoindolin-5-yl)benzoic Acid], for which the IC50 (commonly the concentration that gives 50% inhibition) stood at 5 nM.
For `COc1ccc(C(=O)O)cc1-c1ccc2c(c1)C(=O)N(c1cccc(-c3nncn3C(C)C)n1)C2` [Compound 8, 3-(2-(6-(4-Isopropyl-4H-1,2,4-triazol-3-yl)pyridin-2-yl)-3-oxoisoindolin-5-yl)-4-methoxybenzoic Acid], the IC50 stood at 10.7 nM.
Consider `O=C1c2cc(-c3cccc(C4(C(=O)O)CC4)c3)ccc2CN1c1cccc(-c2nncn2C2CC2)n1` [Compound 106, 1-(3-(2-(6-(4-Cyclopropyl-4H-1,2,4-triazol-3-yl)pyridin-2-yl)-3-oxoisoindolin-5-yl)phenyl)cyclopropane-1-carboxylic Acid], for which the IC50 was 8.4 nM.
Regarding `O=C1c2cc(-c3ccc(C4(C(=O)O)CC4)cc3)ccc2CN1c1cccc(-c2nncn2C2CC2)n1` [Compound 87, 1-(4-(2-(6-(4-Cyclopropyl-4H-1,2,4-triazol-3-yl)pyridin-2-yl)-3-oxoisoindolin-5-yl)phenyl)cyclopropane-1-carboxylic Acid], the IC50 turned out to be 2.5 nM.
Regarding `CC(C)n1cnnc1-c1cccc(N2Cc3ccc(-c4cc(C(=O)O)ccc4CO)cc3C2=O)n1` [Compound 59, 4-(Hydroxymethyl)-3-(2-(6-(4-isopropyl-4H-1,2,4-triazol-3-yl)pyridin-2-yl)-3-oxoisoindolin-5-yl)benzoic Acid], the IC50 was determined as 5.3 nM.
Turning to `CC(C)n1cnnc1-c1cccc(N2Cc3ccc(-c4ccc(C(=O)O)cc4F)cc3C2=O)n1` [Compound 57, 3-Fluoro-4-(2-(6-(4-isopropyl-4H-1,2,4-triazol-3-yl)pyridin-2-yl)-3-oxoisoindolin-5-yl)benzoic Acid], the IC50 is 5.8 nM.
Take `CC(C)n1cnnc1-c1cccc(N2Cc3ccc(-c4ccc5c(c4)COC5=O)cc3C2=O)n1` [Compound 82, 2-(6-(4-Isopropyl-4H-1,2,4-triazol-3-yl)pyridin-2-yl)-6-(1-oxo-1,3-dihydroisobenzofuran-5-yl)isoindolin-1-one]: the IC50 was found to be 3.2 nM.
As to `CC(C)n1cnnc1-c1cccc(N2Cc3ccc(-c4ccc5c(C(=O)O)cnn5c4)cc3C2=O)n1` [Compound 122, 6-(2-(6-(4-Isopropyl-4H-1,2,4-triazol-3-yl)pyridin-2-yl)-3-oxoisoindolin-5-yl)pyrazolo[1,5-a]pyridine-3-carboxylic Acid], the IC50 was 3.9 nM.
Take `COc1cc(N)c(-c2ccc3c(c2)C(=O)N(c2cccc(-c4nncn4C(C)C)n2)C3)cc1C(=O)O` [Compound 66, 4-Amino-5-(2-(6-(4-isopropyl-4H-1,2,4-triazol-3-yl)pyridin-2-yl)-3-oxoisoindolin-5-yl)-2-methoxybenzoic Acid]: the concentration for half-maximal inhibition (IC50) worked out at 8.9 nM.
The result for `CC(C)n1cnnc1-c1cccc(N2Cc3ccc(-c4ccn5ncc(C(=O)O)c5n4)cc3C2=O)n1` [Compound 124, 5-(2-(6-(4-Isopropyl-4H-1,2,4-triazol-3-yl)pyridin-2-yl)-3-oxoisoindolin-5-yl)pyrazolo[1,5-a]pyrimidine-3-carboxylic Acid] reads 8.3 nM; that for `Cc1c(C(=O)O)ccnc1-c1ccc2c(c1)C(=O)N(c1cccc(-c3nncn3C(C)C)n1)C2` [Compound 114, 2-(2-(6-(4-Isopropyl-4H-1,2,4-triazol-3-yl)pyridin-2-yl)-3-oxoisoindolin-5-yl)-3-methylisonicotinic Acid], 2.1 nM; that for `CC(C)n1cnnc1-c1cccc(N2Cc3ccc(-c4ccc(CC(=O)O)cc4)cc3C2=O)n1` [Compound 84, 2-(4-(2-(6-(4-Isopropy-4H-1,2,4-triazol-3-yl)pyridin-2-yl)-3-oxoisoindolin-5-yl)phenyl)acetic Acid], 4.3 nM.
In the case of `O=C(O)c1cccc(-c2ccc3c(c2)C(=O)N(c2cccc(-c4nncn4C4CC4)n2)C3)c1` [Compound 20, 3-(2-(6-(4-Cyclopropyl-4H-1,2,4-triazol-3-yl)pyridin-2-yl)-3-oxoisoindolin-5-yl)benzoic Acid], the IC50 is 5.3 nM.
Next, `CC(C)n1cnnc1-c1cccc(N2Cc3ccc(-c4cc(F)cc(C(=O)O)c4)cc3C2=O)n1` [Compound 4, 3-Fluoro-5-(2-(6-(4-isopropyl-4H-1,2,4-triazol-3-yl)pyridin-2-yl)-3-oxoisoindolin-5-yl)benzoic Acid]: 6.7 nM; `COC(=O)C(C)(C)c1ccc(-c2ccc3c(c2)C(=O)N(c2cccc(-c4nncn4C(C)C)n2)C3)cc1` [Compound 88, Methyl 2-(4-(2-(6-(4-isopropyl-4H-1,2,4-triazol-3-yl)pyridin-2-yl)-3-oxoisoindolin-5-yl)phenyl)-2-methylpropanoate]: 4.9 nM; `CC(C)n1cnnc1-c1cccc(N2Cc3ccc(-c4cncc(C(=O)O)c4)cc3C2=O)n1` [Compound 63, 5-(2-(6-(4-Isopropyl-4H-1,2,4-triazol-3-yl)pyridin-2-yl)-3-oxoisoindolin-5-yl)nicotinic Acid]: 5.1 nM.
Next, `COc1ncc(-c2ccc3c(c2)C(=O)N(c2cccc(-c4nncn4C(C)C)n2)C3)cc1C(=O)O` [Compound 116, 5-(2-(6-(4-Isopropyl-4H-1,2,4-triazol-3-yl)pyridine-2-yl)-3-oxoisoindolin-5-yl)-2-methoxynicotinic Acid]: 4.6 nM; `CC(C)n1cnnc1-c1cccc(N2Cc3ccc(-c4ccc(-n5ncc(C(=O)O)c5N)cc4)cc3C2=O)n1` [Compound 120, 5-Amino-1-(4-(2-(6-(4-isopropyl-4H-1,2,4-triazol-3-yl)pyridin-2-yl)-3-oxoisoindolin-5-yl)phenyl)-1H-pyrazole-4-carboxylic Acid]: 8.2 nM.
As to `COC(=O)c1ccc(F)c(-c2ccc3c(c2)C(=O)N(c2cccc(-c4nncn4C(C)C)n2)C3)c1` [Compound 100, Methyl 4-fluoro-3-(2-(6-(4-isopropyl-4H-1,2,4-triazol-3-yl)pyridin-2-yl)-3-oxoisoindolin-5-yl)benzoate], the IC50 is 6.57 nM.
Consider `Cc1ccc(C(=O)O)cc1-c1ccc2c(c1)C(=O)N(c1cccc(-c3nncn3C(C)C)n1)C2` [Compound 11, 3-(2-(6-(4-Isopropyl-4H-1,2,4-triazol-3-yl)pyridin-2-yl)-3-oxoisoindolin-5-yl)-4-methylbenzoic Acid], for which the IC50 was found to be 5.9 nM.
Next, `COc1cc(C(=O)O)ccc1-c1ccc2c(c1)C(=O)N(c1cccc(-c3nncn3C(C)C)n1)C2` [Compound 76, 4-(2-(6-(4-Isopropyl-4H-1,2,4-triazol-3-yl)pyridin-2-yl)-3-oxoisoindolin-5-yl)-3-methoxybenzoic Acid]: 8.2 nM; `CC(C)n1cnnc1-c1cccc(N2Cc3ccc(-c4cccc(OCC(=O)O)c4)cc3C2=O)n1` [Compound 108, 2-(3-(2-(6-(4-Isopropyl-4H-1,2,4-triazol-3-yl)pyridin-2-yl)-3-oxoisoindolin-5-yl)phenoxy) Acetic Acid]: 5.2 nM.
The result for `CC(C)n1cnnc1-c1cccc(N2Cc3ccc(-c4ccc(F)c(C(=O)O)c4)cc3C2=O)n1` [Compound 3, 2-Fluoro-5-(2-(6-(4-isopropyl-4H-1,2,4-triazol-3-yl)pyridin-2-yl)-3-oxoisoindolin-5-yl)benzoic Acid] reads 4.9 nM.
Take `CC(C)n1cnnc1-c1cccc(N2Cc3ccc(-c4ccc(C5(C(=O)O)CC5)cc4)cc3C2=O)n1` [Compound 86, 1-(4-(2-(6-(4-Isopropyl-4H-1,2,4-triazol-3-yl)pyridin-2-yl)-3-oxoisoindolin-5-yl)phenyl)cyclopropane-1-carboxylic Acid]: the IC50 amounted to 1.83 nM.
With `CC(C)n1cnnc1-c1cccc(N2Cc3ccc(-c4ccc(C(=O)O)cc4O)cc3C2=O)n1` [Compound 69, 3-Hydroxy-4-(2-(6-(4-isopropyl-4H-1,2,4-triazol-3-yl)pyridin-2-yl)-3-oxoisoindolin-5-yl)benzoic Acid], the IC50 is 6.6 nM.
For `CC(C)n1cnnc1-c1cccc(N2Cc3ccc(-c4cccc(C(=O)O)c4F)cc3C2=O)n1` [Compound 2, 2-Fluoro-3-(2-(6-(4-isopropyl-4H-1,2,4-triazol-3-yl)pyridin-2-yl)-3-oxoisoindolin-5-yl) Benzoic Acid], the concentration for half-maximal inhibition (IC50) is 4.3 nM.
Consider `CC(C)n1cnnc1-c1cccc(N2Cc3ccc(-c4ccc(C(=O)O)c(Cl)c4)cc3C2=O)n1` [Compound 72, 2-Chloro-4-(2-(6-(4-isopropyl-4H-1,2,4-triazol-3-yl)pyridin-2-yl)-3-oxoisoindolin-5-yl)benzoic Acid], for which the IC50 is 4.7 nM.
The result for `CC(C)n1cnnc1-c1cccc(N2Cc3ccc(-c4ncc5ccc(C(=O)O)cc5n4)cc3C2=O)n1` [Compound 125, 2-(2-(6-(4-Isopropyl-4H-1,2,4-triazol-3-yl)pyridin-2-yl)-3-oxoisoindolin-5-yl)quinazoline-7-carboxylic Acid] reads 7 nM.
Next, `CC(C)n1cnnc1-c1cccc(N2Cc3ccc(-c4cc(C(=O)O)ccc4F)cc3C2=O)n1` [Compound 5, 4-Fluoro-3-(2-(6-(4-isopropyl-4H-1,2,4-triazol-3-yl)pyridin-2-yl)-3-oxoisoindolin-5-yl)benzoic Acid]: 0.3 nM; `CC(C)n1cnnc1-c1cccc(N2Cc3ccc(-c4cc(C#N)cc(C(=O)O)c4)cc3C2=O)n1` [Compound 13, 3-Cyano-5-(2-(6-(4-isopropyl-4H-1,2,4-triazol-3-yl)pyridin-2-yl)-3-oxoisoindolin-5-yl) benzoic Acid]: 1.6 nM.
